Assay results from article PMC7377239, “Cardiovascular Effects of Polychlorinated Biphenyls and Their Major Metabolites” (Environmental Health Perspectives, 2020).
Like-named read-outs stand apart in the source and are kept apart here.

Tests used:
[1] = tested on: iCell cardiomyocytes (human iPSC-derived cardiomyocytes); assay: High-content imaging of cytotoxicity and mitochondrial integrity in iPSC-CMs; format: cell-based; details: Homo sapiens; for viability at 0.01 µM / activity at 0.01 µM / viability at 0.1 µM / activity at 0.1 µM / viability at 1 µM / activity at 1 µM / viability at 10 µM / activity at 10 µM / viability at 100 µM / activity at 100 µM: Cardiomyocyte, 0.00 µM = 100.00; for viability at 0.1 µM / activity at 0.1 µM: 0.10 µM; for minimal effective concentration: iPSC-CM
How it was run: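 Human iPSC-derived cardiomyocytes were seeded on gelatin-coated 384-well plates at 5,000 cells per well and maintained for 12 d. Test chemicals were added as 10μL of 5× solutions to final concentrations of 0.01 to 100μM. Cells were stained with Hoechst 33342 and MitoTracker™ Orange, fixed in formaldehyde, and imaged by confocal high-content microscopy at 10× magnification.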

HUVECs = assay: High-content imaging cytotoxicity in HUVECs, 24 h; format: cell-based, human; details: Homo sapiens, HUVEC, 24 h, HUVECs; for viability at 0.01 µM / activity at 0.01 µM / viability at 0.1 µM / activity at 0.1 µM / viability at 1 µM / activity at 1 µM / viability at 10 µM / activity at 10 µM / viability at 100 µM / activity at 100 µM: 0.00 µM = 100.00; for viability at 0.1 µM / activity at 0.1 µM: 0.10 µM; for minimal effective concentration: top concentration 100.00 µM
How it was run: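 HUVECs (passages 1–5) were plated at 750 cells/well without fibronectin, grown to a monolayer (3–5 d) and exposed to compounds for 24 h at 37°C, 5% CO2. Hoechst 33342, MitoTracker Orange and calcein AM staining was imaged at 10×; readouts were normalized to 0.5% DMSO vehicle and fit to a four-parameter logistic model.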

[2] = 24 hr, read-out: huvec.cyto.24hr
[3] = 24 hr, read-out: huvec.mito.24hr
[4] = 24 hr, read-out: huvec.mitoint.24hr
[5] = 24 hr, read-out: huvec.nma.24hr
[6] = 24 hrs, read-out: huvec.tc.24hrs

Compound `COc1ccc(-c2cccc(Cl)c2)cc1Cl` [4-OMe PCB11] has a viability at 0.01 µM ([1]; 1.5 h, read-out: cm.cam.90min) of 89.1%, an activity at 0.01 µM ([1]; 1.5 h, read-out: cm.mii.90min) of 112% and an activity at 0.01 µM ([1]; 1.5 h, read-out: cm.mito.90min) of 87.5%. For the same compound, the viability at 0.01 µM ([1]; 1.5 h, read-out: cm.tc.90min) was 89.6%, the viability at 0.1 µM ([1]; 1.5 h, read-out: cm.cam.90min) was 101% and the activity at 0.1 µM ([1]; 1.5 h, read-out: cm.mii.90min) was 93.8%. The activity at 0.1 µM ([1]; 1.5 h, read-out: cm.mito.90min) was 101%, the viability at 0.1 µM ([1]; 1.5 h, read-out: cm.tc.90min) was 101% and the viability at 1 µM ([1]; 1.5 h, read-out: cm.cam.90min) was 96.5%. The activity at 1 µM ([1]; 1.5 h, read-out: cm.mii.90min) was 94.7%, the activity at 1 µM ([1]; 1.5 h, read-out: cm.mito.90min) was 96.6% and the viability at 1 µM ([1]; 1.5 h, read-out: cm.tc.90min) was 96.7%. It also gave a viability at 10 µM ([1]; 1.5 h, read-out: cm.cam.90min) of 99.9%, an activity at 10 µM ([1]; 1.5 h, read-out: cm.mii.90min) of 109% and an activity at 10 µM ([1]; 1.5 h, read-out: cm.mito.90min) of 100%. It also gave a viability at 10 µM ([1]; 1.5 h, read-out: cm.tc.90min) of 100%, a viability at 100 µM ([1]; 1.5 h, read-out: cm.cam.90min) of 3.43% and an activity at 100 µM ([1]; 1.5 h, read-out: cm.mii.90min) of 74.3%. For the same compound, the activity at 100 µM ([1]; 1.5 h, read-out: cm.mito.90min) was 2.03%, the viability at 100 µM ([1]; 1.5 h, read-out: cm.tc.90min) was 3.76% and the viability at 0.01 µM ([1]; 24 h, read-out: cm.cam.24hrs) was 95.2%. The activity at 0.01 µM ([1]; 24 h, read-out: cm.mii.24hrs) was 95.8%, the activity at 0.01 µM ([1]; 24 h, read-out: cm.mito.24hrs) was 97.8% and the viability at 0.01 µM ([1]; 24 h, read-out: cm.tc.24hrs) was 97.4%. The viability at 0.1 µM ([1]; 24 h, read-out: cm.cam.24hrs) was 102%, the activity at 0.1 µM ([1]; 24 h, read-out: cm.mii.24hrs) was 88.6% and the activity at 0.1 µM ([1]; 24 h, read-out: cm.mito.24hrs) was 104%. The viability at 0.1 µM ([1]; 24 h, read-out: cm.tc.24hrs) was 103%, the viability at 1 µM ([1]; 24 h, read-out: cm.cam.24hrs) was 95.3% and the activity at 1 µM ([1]; 24 h, read-out: cm.mii.24hrs) was 107%. For the same compound, the activity at 1 µM ([1]; 24 h, read-out: cm.mito.24hrs) was 93.6%, the viability at 1 µM ([1]; 24 h, read-out: cm.tc.24hrs) was 95.6% and the viability at 10 µM ([1]; 24 h, read-out: cm.cam.24hrs) was 102%. It also gave an activity at 10 µM ([1]; 24 h, read-out: cm.mii.24hrs) of 85.8%, an activity at 10 µM ([1]; 24 h, read-out: cm.mito.24hrs) of 103% and a viability at 10 µM ([1]; 24 h, read-out: cm.tc.24hrs) of 103%. The viability at 100 µM ([1]; 24 h, read-out: cm.cam.24hrs) was 2.29%, the activity at 100 µM ([1]; 24 h, read-out: cm.mii.24hrs) was 34.1% and the activity at 100 µM ([1]; 24 h, read-out: cm.mito.24hrs) was 0.46%. The viability at 100 µM ([1]; 24 h, read-out: cm.tc.24hrs) was 2.4%, the minimal effective concentration ([1]; 1.5 h, read-out: cm.cam.90min POD) was 33.8 µM and the minimal effective concentration ([1]; 1.5 h, read-out: cm.mii.90min POD) was 62.2 µM. For the same compound, the minimal effective concentration ([1]; 1.5 h, read-out: cm.mito.90min POD) was 29.1 µM, the minimal effective concentration ([1]; 1.5 h, read-out: cm.tc.90min POD) was 28.6 µM and the minimal effective concentration ([1]; 24 h, read-out: cm.cam.24hrs POD) was 37.2 µM. The minimal effective concentration ([1]; 24 h, read-out: cm.mii.24hrs POD) was 10.8 µM, the minimal effective concentration ([1]; 24 h, read-out: cm.mito.24hrs POD) was 31.1 µM and the minimal effective concentration ([1]; 24 h, read-out: cm.tc.24hrs POD) was 33.4 µM. For the same compound, the viability at 0.01 µM (HUVECs; [2]) was 96.4%, the activity at 0.01 µM (HUVECs; [3]) was 94.6% and the activity at 0.01 µM (HUVECs; [4]) was 95.4%. For the same compound, the activity at 0.01 µM (HUVECs; [5]) was 96.3%, the viability at 0.1 µM (HUVECs; [2]) was 98.3% and the activity at 0.1 µM (HUVECs; [3]) was 98.5%. For the same compound, the activity at 0.1 µM (HUVECs; [4]) was 106%, the activity at 0.1 µM (HUVECs; [5]) was 101% and the viability at 1 µM (HUVECs; [2]) was 101%. For the same compound, the activity at 1 µM (HUVECs; [3]) was 100%, the activity at 1 µM (HUVECs; [4]) was 103% and the activity at 1 µM (HUVECs; [5]) was 100%. The viability at 10 µM (HUVECs; [2]) was 89.7%, the activity at 10 µM (HUVECs; [3]) was 86.4% and the activity at 10 µM (HUVECs; [4]) was 95.6%. It also gave an activity at 10 µM (HUVECs; [5]) of 92.7%, a viability at 100 µM (HUVECs; [2]) of 56.3% and an activity at 100 µM (HUVECs; [3]) of 44%. It also gave an activity at 100 µM (HUVECs; [4]) of 65.8%, an activity at 100 µM (HUVECs; [5]) of 73.1% and a minimal effective concentration (HUVECs; 24 hr, read-out: huvec.cyto.24hr POD) of 7.59 µM. For the same compound, the minimal effective concentration (HUVECs; 24 hr, read-out: huvec.mito.24hr POD) was 6.19 µM, the minimal effective concentration (HUVECs; 24 hr, read-out: huvec.mitoint.24hr POD) was 16 µM and the minimal effective concentration (HUVECs; 24 hr, read-out: huvec.nma.24hr POD) was 6.39 µM. The viability at 0.01 µM (HUVECs; [6]) was 96.4%, the viability at 0.1 µM (HUVECs; [6]) was 98.4% and the viability at 1 µM (HUVECs; [6]) was 101%. For the same compound, the viability at 10 µM (HUVECs; [6]) was 89.7%, the viability at 100 µM (HUVECs; [6]) was 56.4% and the minimal effective concentration (HUVECs; 24 hrs, read-out: huvec.tc.24hrs POD) was 7.59 µM.
